Assay results from patent US20180311268A1, “RESPONSE-GUIDED HCV THERAPY” (EMORY UNIVERSITY, priority 2015, published 2018).
Several values for one entry are separate records, joined by “and”; a condition that tells them apart may be missing. Equal entries are not always repeated.

How the values were obtained:
HCV genotype 1 = conditions: added to sofosbuvir and ledipasvir, 6 week triple-drug regimens; cited from earlier work
[1] = Plasma concentrations of anti-HCV drugs by LC-MS/MS; type: in vivo, human
Description: Plasma samples from patients infected with HCV were stored in aliquots at −80° C. until further processing. Viral RNA was extracted and the genome sequenced using an Applied Biosystems 3730×1 DNA analyser as previously described.^21 Data were analysed with the ABL-DeepChek-HCV 1.4 software (ABL SA, Luxembourg, Luxembourg). To confirm compliance, a liquid chromatography-tandem mass spectrometry (LC-MS/MS) method was developed to detect and quantify the anti-HCV drug concentrations in plasma collected from each patient. Briefly, blood samples were collected from 25 patients at 8 h, 24 h, and 48 h after initiating treatment. 50 μL of plasma was extracted with 3 mL of ethyl acetate containing abacavir (as an internal standard). The supernatant was collected, air dried, then reconstituted in 2 mmol/L ammonium acetate solution with 75% methanol. Five target compounds were simultaneously monitored and quantified by LC-MS/MS in the multiple reaction monitoring mode, including sofosbuvir (m/z 530.2/243.2), daclatasvir (m/z 739.5/339.3), ledipasvir (m/z 889.4/637.3), asunaprevir (m/z 748.4/648.4), and simeprevir (m/z 750.4/315.2). A Dionex Ultimate 3000 HPLC system (Thermo Scientific, Waltham, Mass., USA) coupled with an AB SCIEX API5000 triple quadrupole mass spectrometer (AB SCIEX, Framingham, Mass., USA) was used for analysis.
Fifty μL plasma was extracted with 3 mL of ethyl acetate containing abacavir (as internal standard). The supernatant was collected, air-dried then reconstituted in 2 mM ammonium acetate solution with 75% methanol. Five target compounds were simultaneously monitored and quantified by LC-MS/MS in the multiple reaction monitoring (MRM) mode, including sofosbuvir (m/z 530.2à243.2), daclatasvir (m/z 739.5à339.3), ledipasvir (m/z 889.4à637.3), asunaprevir (m/z 748.4à648.4) and simeprevir (m/z 750.4à315.2). SOF concentrations were measured with a wide range from BLOQ to 3,174 ng/mL; LDV and DCV were in the range of BLOQ to 469 ng/mL and 101 to 3045 ng/mL; ASV and SMV were in the range of BLOQ to 626 ng/mL and 30.6 to 693 ng/mL, respectively.

Row | SMILES | Patients with SVR12 (HCV genotype 1) [%] | Range of measured plasma concentrations ([1]; all subjects, 8, 24 and 48 hr after first treatment, BLOQ = below LOQ) | concentration at 8 h ([1]; human, in vivo, individual subjects on SOF + DCV + ASV Then SOF + LDV, >3 weeks treatment, 8 h) [ng/mL] | concentration at 24 h ([1]; human, in vivo, individual subjects on SOF + DCV + ASV Then SOF + LDV, >3 weeks treatment, 24 h) [ng/mL] | concentration at 48 h ([1]; human, in vivo, individual subjects on SOF + DCV + ASV Then SOF + LDV, >3 weeks treatment, 48 h) [ng/mL] | concentration at 24 h ([1]; human, in vivo, individual subjects on SOF + DCV + SMV, 3 weeks treatment, 24 h) [ng/mL] | concentration at 8 h ([1]; human, in vivo, individual subjects on SOF + LDV + ASV Then SOF + LDV, >3 weeks treatment, 8 h) [ng/mL] | Plasma concentration ([1]; individual subjects on SOF + DCV + ASV, 3 weeks treatment, 8 h) | Plasma concentration ([1]; individual subjects on SOF + DCV + ASV, 3 weeks treatment, 24 h) | Plasma concentration ([1]; individual subjects on SOF + DCV + ASV, 3 weeks treatment, 48 h) | Plasma concentration ([1]; individual subjects on SOF + DCV + SMV, 3 weeks treatment, 8 h) | Plasma concentration ([1]; individual subjects on SOF + DCV + SMV, 3 weeks treatment, 24 h) | Plasma concentration ([1]; individual subjects on SOF + DCV + SMV, 3 weeks treatment, 48 h) | Plasma concentration ([1]; individual subjects on SOF + LDV + ASV Then SOF + LDV, >3 weeks treatment, 8 h) [ng/mL] | Plasma concentration ([1]; individual subjects on SOF + LDV + ASV Then SOF + LDV, >3 weeks treatment, 24 h) | Plasma concentration ([1]; individual subjects on SOF + LDV + ASV, 3 weeks treatment, 8 h after initiating treatment) | Plasma concentration ([1]; individual subjects on SOF + LDV + ASV, 3 weeks treatment, 24 h) | Plasma concentration ([1]; individual subjects on SOF + LDV + ASV, 3 weeks treatment, 48 h)
1 | CC1=CC[C@H](C(=O)N(c2cc(C#CC(C)(C)C)sc2C(=O)O)[C@H]2CC[C@](O)(CO[C@H]3CCOC3)CC2)CC1 [GS-9669] | 95 |  |  |  |  |  |  |  |  |  |  |  |  |  |  |  |  | 
2 | CC(C)OC(=O)[C@H](C)N[P@](=O)(OC[C@H]1O[C@@H](n2ccc(=O)[nH]c2=O)[C@](C)(F)[C@@H]1O)Oc1ccccc1 [SOF, Sofosbuvir] |  | ≤ 3,174 ng/mL | 9.99 | 11.2 | 631 | 2410 | 0.67 | 0.55 ng/mL and 0.28 ng/mL and 2.03 ng/mL and 13.5 ng/mL and 0.47 ng/mL | 1.09 ng/mL and 0.28 ng/mL and 0.27 ng/mL and 192 ng/mL and 256 ng/mL | 1.41 ng/mL and 0.80 ng/mL and 7.55 ng/mL and 292 ng/mL and 12.7 ng/mL and 1807 ng/mL | 2.35 ng/mL and 0.26 ng/mL and 14.7 ng/mL and 0.42 ng/mL and 1.45 ng/mL | 2114 ng/mL and 1923 ng/mL | 3174 ng/mL and 1796 ng/mL and 1549 ng/mL and 1227 ng/mL | 0.58 | 202 ng/mL and 1591 ng/mL and 0.61 ng/mL | 7.17 ng/mL and 5.52 ng/mL and 4.22 ng/mL and 18.2 ng/mL and 4.54 ng/mL and 10.4 ng/mL | 0.94 ng/mL and 8.92 ng/mL and 1.23 ng/mL and 2.13 ng/mL and 1.17 ng/mL and 0.99 ng/mL | 4.76 ng/mL and 6.35 ng/mL and 0.64 ng/mL and 1.59 ng/mL and 0.92 ng/mL and 0.81 ng/mL
3 | CC[C@@H]1C[C@]1(NC(=O)[C@@H]1C[C@@H](Oc2cc(-c3csc(NC(C)C)n3)nc3c(Cl)c(OCCN4CCOCC4)ccc23)CN1C(=O)[C@@H](NC(=O)O[C@@H]1C[C@@H]2C[C@@H]2C1)C(C)(C)C)C(=O)O [GS-9451] | 95 |  |  |  |  |  |  |  |  |  |  |  |  |  |  |  |  | 
